Measured values reported in ChEMBL document CHEMBL1142607, “Haterumadysins A-D, sesquiterpenes from the Okinawan marine sponge Dysidea chlorea” (2006).
Active and inactive are the calls of the source. The calls are words filed in the database; no cut-off is given here.

Assays:
Assay type in all cases: functional
Echinoidea [1] = test: (§1) Inhibition of cell division in fertilized sea urchin egg at 1 ppm
Echinoidea [2] = test: Inhibition of cell division in fertilized sea urchin egg at 3 ppm
[3] = as §1; details: Echinoidea

Row | Compound | Activity (Echinoidea [1]) | also measured
1 | CC(=O)O[C@@H]1OC=C[C@]12CC1=C[C@](C)(OO)CC[C@H]1C2(C)C | Active | 
2 | CC(=O)O[C@@H]1OC=C[C@]12CC1=C[C@@](C)(OO)CC[C@H]1C2(C)C | Active | 
3 | CC(=O)O[C@@H]1OC=C[C@]12C=C1C=C(C)CC[C@H]1C2(C)C | Active | 
4 | CC1=C[C@@H]2C[C@]3(C=COC3=O)C(C)(C)[C@@H]2CC1 |  | Activity (Echinoidea [2]): inactive
5 | CC(=O)O[C@@H]1OC=C[C@]12C[C@H]1C=C(C)CC[C@H]1C2(C)C [SPIRODYSIN] |  | inhibition at 1 ppm [3]: 90%
6 | CC(=O)O[C@@H]1OC=C[C@]12Cc1cc(C)ccc1C2(C)C | Active | 
